Publication PMC9921063 (Molecules, 2023)

Key:
C. albicans [1] = assay: Minimum inhibitory concentration (MIC); format: cell-based
Protocol: (§1) Microorganisms, media and growth conditions, agar well diffusion method for inhibition zone determination (IZ) and minimum inhibitory concentration (MIC) were performed according to the literature work.
(§2) The synthesized compounds were examined in vitro for their antimicrobial activity against Six standard microorganisms of ATCC, two Gram positive bacteria S. aureus and Listeria monocytogenes, three Gram negative bacteria Esherichia coli, Pseudomonas aeruginosa and Salmonella typhimurium and the fungus C. albicans. Bacteria were cultured in Luria-Bertani (LB) medium, while Sabouraud agar was used for culturing C. albicans and the assay conducted according to our previous techniques. The results were the average of 3 readings.

S. aureus [2] = assay: Minimum inhibitory concentration (MIC); format: cell-based
Protocol: as §1, §2

C. albicans [3] = assay: Agar well diffusion, inhibition zone; format: cell-based
Protocol: as §1, §2

S. aureus [4] = assay: Agar well diffusion, inhibition zone; format: cell-based
Protocol: as §1, §2

S. typhimurium [5] = assay: Minimum inhibitory concentration (MIC); format: cell-based, Salmonella typhimurium
Protocol: as §1, §2

[6] = system: colon carcinoma cells (HCT-116); assay: In vitro anticancer proliferation (cytotoxicity) assay; format: cell-based, human; conditions: mean ± S.D.
Protocol: (§3) The selected compound was investigated for its cytotoxic properties against HCT-116 and HepG-2 (cancer cell lines of ATCC, Rockville, MD, USA). Vinblastine was applied as reference drug. The assay was conducted according to the methods described by Mossman and our recently published data.

[7] = system: hepatocellular carcinoma cell lines (HepG-2); assay: as above; format: cell-based, human; conditions: hepatocellular carcinoma cells; mean ± S.D.
Protocol: as §3

L. monocytogenes [8] = assay: Agar well diffusion, inhibition zone; format: cell-based, Listeria monocytogenes
Protocol: as §1, §2

[9] = system: all examined microorganisms; assay: Antimicrobial activity, summary over all examined microorganisms; format: cell-based
Protocol: as §1, §2

S. typhimurium [10] = assay: Agar well diffusion, inhibition zone; format: cell-based, Salmonella typhimurium
Protocol: as §1, §2

Vero cell = assay: In vitro cytotoxicity assay, MTT; format: cell-based; conditions: mean ± S.D.
Protocol: MTT colorimetric technique was carried out for cytotoxicity evaluation according to the methods mentioned in our previously published article. An amount of 96 well plates with complete were used for the culture of the cells. FLUOstar OPTIMA spectrophotometer was applied for colorimetric analysis and in vitro evaluation.

E. coli = assay: Agar well diffusion, inhibition zone; format: cell-based, Esherichia coli
Protocol: as §1, §2

[11] = system: T. gondii tachyzoites RH strain; assay: Antitoxoplasmal assay; format: cell-based, Toxoplasma gondii; conditions: mean ± S.D.
Protocol: This assay was carried out according to the methods mentioned in our previously published article. Vero cells line (ATCC® CCL81™, USA) were used for the serial passage and cultivation of T. gondii tachyzoites RH strain, complete RPMI 1640 medium with heat-inactivated 10% FBS was used for the culture and in vitro evaluation, while atovaquone (ATO) was used as reference drug. The results were expressed in IC50 of three independent readings, followed by the selectivity index (SI) calculation by dividing CC50 over IC50 of the same compound [56].

P. aeruginosa = assay: Agar well diffusion, inhibition zone; format: cell-based, Pseudomonas aeruginosa
Protocol: as §1, §2

[12] = β-Carotene linoleic acid bleaching assay; conditions: β-carotene bleaching test; mean ± S.D.
Protocol: (§4) Three methods were used for the assessing antioxidant properties of the selected compounds, which are 2.2-diphenyl-1-picrylhydrazyl (DPPH), 2.2’-azino-bis (3-ethylbenzothiazoline-6-sulphonic acid) (ABTS) radicals scavenging, and β-carotene linoleic acid bleaching assay. […] The control compound was butylated hydroxytoluene (BHT), which is a potent antioxidant.
β-Carotene bleaching test was conducted following the method described by Pratt’s.
(§5) All the assays used for antioxidant determination (DPPH, ABTS, and β-carotene bleaching assay) were performed simultaneously three times in the same conditions. The results obtained in µM mL^−1 average of the three experiments.

[13] = ABTS radical scavenging assay; conditions: antiradical scavenging; mean ± S.D.
Protocol: as §4
ABTS radical scavenging activity was conducted by referring to the method of Re et al..
as §5

L. major promastigotes = assay: Antileishmanial assay, promastigotes; format: cell-based, Leishmania major; conditions: mean ± S.D.
Protocol: (§6) This assay was carried out according to the methods mentioned in our previously published article. L. major promastigotes were isolated locally from an indoor patient in 2016, liquid nitrogen was used for the preservation of the parasites, and BALB/c mice were used for the maintenance of the parasites and production of L. major amastigotes. Phenol red-free RPMI 1640 medium (Invitrogen, USA) with 10% FBS was used for the culture and in vitro evaluation, while amphotericin B (AmB) was used as reference drug.

L. monocytogenes [14] = assay: Minimum inhibitory concentration (MIC); format: cell-based, Listeria monocytogenes
Protocol: as §1, §2

[15] = DPPH radical scavenging activity; conditions: antiradical scavenging; mean ± S.D.
Protocol: as §4
Briefly, various amounts of produced compounds were diluted with ultrapure water after being dissolved in dimethylsulfoxide (DMSO)/water (1/9; v/v) (1, 0.5, 0.250, 0.125, 0.0625, 0.03125 mg mL^−1). The samples were then combined with […] of a 4% (w/v) solution of the DPPH radical in ethanol. The combination was incubated for 30 min. at room temperature and in the dark. Spectrophotometric analysis was used to calculate the scavenging capacity by comparing the decrease in absorbance at 517 nm to a blank.
as §5

TyrE = TyrE (Agaricus bisporus, UniProt C7FF04); format: biochemical
L. major amastigotes = assay: Antileishmanial assay, amastigotes; format: cell-based, Leishmania major; conditions: mean ± S.D.
Protocol: as §6

[16] = against all examined microorganisms

Chain of TyrE (C7FF04 1-392): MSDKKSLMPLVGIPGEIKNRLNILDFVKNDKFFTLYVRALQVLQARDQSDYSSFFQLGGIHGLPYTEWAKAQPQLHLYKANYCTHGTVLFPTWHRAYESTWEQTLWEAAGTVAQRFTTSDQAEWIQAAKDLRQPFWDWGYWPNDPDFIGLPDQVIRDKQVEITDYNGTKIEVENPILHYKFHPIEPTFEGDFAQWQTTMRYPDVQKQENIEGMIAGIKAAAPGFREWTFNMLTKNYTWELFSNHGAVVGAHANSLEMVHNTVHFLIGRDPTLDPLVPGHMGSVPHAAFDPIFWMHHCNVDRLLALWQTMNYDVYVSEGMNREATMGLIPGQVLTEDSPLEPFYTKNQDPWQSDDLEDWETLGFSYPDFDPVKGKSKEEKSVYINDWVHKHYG

## 5,6-Dimethyl-[1,3-(3,5)dimethyl-4-methyl)-benzimidazol-2-ylidene](p-cymene) ruthenium(II) chloride [Compound 3d]
C. albicans [1]
  MIC: 1.25 µM mL^−1
S. aureus [2]
  MIC: 1.95 µM mL^−1
C. albicans [3]
  Inhibition zone: 27 mm
S. aureus [4]
  Inhibition zone: 26 mm
S. typhimurium [5]
  MIC: 1.95 µM mL^−1
[6]
  IC50 HCT-116: 8.45 ± 0.9 µM mL^−1
[7]
  IC50 HepG-2: 12.75 ± 1.7 µM mL^−1
L. monocytogenes [8]
  Inhibition zone: 28 mm
[9]; [16]
  IZ (inhibition zone): over 25 mm
  MIC (minimum inhibitory concentration): < 4 µM
[9]; all of the examined indicator organisms
  Inhibition of the examined indicator organisms: inhibited
S. typhimurium [10]
  Inhibition zone: 27 mm
Vero cell
  CC50 Toxicity (Vero Cell): 1.8 ± 0.2 µM mL^−1
E. coli
  Inhibition zone: 29 mm
[11]
  Toxoplasma IC50: 1.4 ± 0.1 µM mL^−1
P. aeruginosa
  Inhibition zone: 27 mm
[12]
  β-Carotene IC50: 92.25 ± 11.9 µM mL^−1
[13]
  ABTS IC50: 18.17 ± 3.0 µM mL^−1
L. major promastigotes
  Promastigotes IC50: 0.32 ± 0.04 µM mL^−1
L. monocytogenes [14]
  MIC: 3.9 µM mL^−1
[15]
  DPPH IC50: 32.18 ± 5.4 µM mL^−1
TyrE
  TyrEI IC50: 24.95 ± 3.7 µM mL^−1
L. major amastigotes
  Amastigote IC50: 1.4 ± 0.3 µM mL^−1
